Measured values: the Deep4Chem optical property database
Each block holds one molecule with its values, some of them ahead of it.

Assay: photoluminescence quantum yield (fraction); solvent given as SMILES

Compound: COc1ccc(-c2nc(C)cc(-c3ccc(-n4c5ccccc5c5ccccc54)cc3)n2)cc1
photoluminescence quantum yield (in C1CCOC1): 0.47
photoluminescence quantum yield (in CN(C)C=O): 0.68
photoluminescence quantum yield (in Cc1ccccc1): 0.46
photoluminescence quantum yield (in ClC(Cl)Cl): 0.65

Compound: CC(C)[Si]1(C(C)C)c2cc(C=O)ccc2-c2ccc(N(c3ccccc3)c3ccccc3)cc21
photoluminescence quantum yield (in C1CCCCC1): 0.5
photoluminescence quantum yield (in CC#N): 0.48
photoluminescence quantum yield (in CCO): 0.11
photoluminescence quantum yield (in CCOCC): 0.76
photoluminescence quantum yield (in CS(C)=O): 0.58
photoluminescence quantum yield (in ClCCl): 0.8
photoluminescence quantum yield (in c1ccccc1): 0.77

Compound: CN(C)c1ccc(C2=Nc3scc(-c4ccc(N(C)C)cc4)[n+]3[B-](F)(F)O2)cc1
photoluminescence quantum yield (in C1CCOC1): 0.01
photoluminescence quantum yield (in CC#N): 0
photoluminescence quantum yield (in Cc1ccccc1): 0.66
photoluminescence quantum yield (in ClCCl): 0.04

Compound: Cc1sc(Cl)cc1-c1nc(-c2ccc(Cl)cc2)[nH]c1-c1cc(Cl)sc1C
photoluminescence quantum yield (in CC#N): 0.114

Compound: CC[N+]1(CC)CN2C(=N1)C(C(=O)[O-])=Cc1ccccc12
photoluminescence quantum yield (in CN(C)C=O): 0.05
photoluminescence quantum yield (in O): 0.736

Compound: CCC1=C(C)C2=C(c3c4ccccc4c(-c4ccccc4)c4ccccc34)c3c(C)c(CC)c(C)n3[B-](F)(F)[N+]2=C1C
photoluminescence quantum yield (in CC#N): 0.422
photoluminescence quantum yield (in CCCCCC): 0.903
photoluminescence quantum yield (in CCO): 0.804
photoluminescence quantum yield (in CN(C)C=O): 0.648
photoluminescence quantum yield (in Cc1ccccc1): 0.858
photoluminescence quantum yield (in ClCCl): 0.833

Compound: COc1ccc(-c2ccc(/C=C/c3cnc4ccccc4n3)cc2)cc1
photoluminescence quantum yield (in ClCCl): 0.42

Compound: CCCCN1C(=O)c2cc(Oc3ccc(C(C)(C)C)cc3)c3c4c(Oc5ccc(C(C)(C)C)cc5)cc5c(=O)n6c(c7cc(Oc8ccc(C(C)(C)C)cc8)c(c8c(Oc9ccc(C(C)(C)C)cc9)cc(c2c38)C1=O)c4c57)=Cc1cccc[n+]1[B-]6(F)F
photoluminescence quantum yield (in C1CCOC1): 0.564
photoluminescence quantum yield (in Cc1ccccc1): 0.451
photoluminescence quantum yield (in ClCCl): 0.5

Compound: COc1cc(N(c2ccccc2)c2ccccc2)ccc1C=C(C#N)C#N
photoluminescence quantum yield (in C1COCCO1): 0.012
photoluminescence quantum yield (in CC#N): 0.005
photoluminescence quantum yield (in CC(C)=O): 0.013
photoluminescence quantum yield (in CCOC(C)=O): 0.017
photoluminescence quantum yield (in CN(C)C=O): 0.009
photoluminescence quantum yield (in CO): 0.006
photoluminescence quantum yield (in Cc1ccccc1): 0.01
photoluminescence quantum yield (in ClC(Cl)Cl): 0.023
photoluminescence quantum yield (in ClCCl): 0.016

Compound: C[C@]12SC(=O)C=C1c1nc(-c3ccccc3O)[nH]c1C1=CC(=O)S[C@@]12C
photoluminescence quantum yield (in CC#N): 0.01

Compound: N#Cc1ccc2c(c1)CCc1nc(-c3ccc([N+](=O)[O-])cc3)c3c(c1-2)CCc1cc(C#N)ccc1-3
photoluminescence quantum yield (in C1CCOC1): 0.043
photoluminescence quantum yield (in CC#N): 0.039
photoluminescence quantum yield (in CCCCCC): 0.3
photoluminescence quantum yield (in CCOC(C)=O): 0.015
photoluminescence quantum yield (in CO): 0.01
photoluminescence quantum yield (in CS(C)=O): 0.073
photoluminescence quantum yield (in Cc1ccccc1): 0.014
photoluminescence quantum yield (in ClCCl): 0.292

Compound: c1ccc(N2c3ccc4ccccc4c3-c3c4ccccc4nc[n+]3[B-]2(c2ccccc2)c2ccccc2)cc1
photoluminescence quantum yield (in C1CCC2CCCCC2C1): 0.07
photoluminescence quantum yield (in C1CCCCC1): 0.06
photoluminescence quantum yield (in CCCCCC): 0.06
photoluminescence quantum yield (in CCOC(C)=O): 0.02
photoluminescence quantum yield (in Cc1ccccc1): 0.03
photoluminescence quantum yield (in ClC(Cl)Cl): 0.01

Compound: CCCC1=Cc2nc1ccc1[nH]c(cc1CCC)c1nc(c(OCc3ccc(C(=O)O)cc3)cc3[nH]c2cc3CCC)C(CCC)=C1
photoluminescence quantum yield (in Cc1ccccc1): 0.21

Compound: CN(C)c1ccc(-c2cc(-c3ccc(C#N)cc3)nc(-c3ccccc3)n2)cc1
photoluminescence quantum yield (in ClC(Cl)Cl): 0.44

Compound: N#Cc1nc2c(nc1C#N)C1c3ccc(N(c4ccccc4)c4ccccc4)cc3C2c2ccc(N(c3ccccc3)c3ccccc3)cc21
photoluminescence quantum yield (in C1CCCCC1): 0.55
photoluminescence quantum yield (in CC#N): 0.001
photoluminescence quantum yield (in Cc1ccccc1): 0.25
photoluminescence quantum yield (in ClCCl): 0.002

Compound: CC[N+]1(CC)CN2C(=N1)C(C(=O)O)=Cc1cc(OC)ccc12
photoluminescence quantum yield (in O): 0.509

Compound: CCCCCCCCCCC1(CCCCCCCCCC)c2cc(-c3nc4ccccc4s3)ccc2-c2ccc(N3C(=O)c4ccc5c6ccc7c8c(ccc(c9ccc(c4c59)C3=O)c86)C(=O)N(c3ccc4c(c3)C(CCCCCCCCCC)(CCCCCCCCCC)c3cc(-c5nc6ccccc6s5)ccc3-4)C7=O)cc21
photoluminescence quantum yield (in Cc1ccccc1): 0.23
photoluminescence quantum yield (in ClCCl): 0.0025

Compound: Oc1ccc2ccccc2c1C1Nc2cccc3cccc(c23)N1
photoluminescence quantum yield (in CC#N): 0.03
photoluminescence quantum yield (in CO): 0.03
photoluminescence quantum yield (in CS(C)=O): 0.14
photoluminescence quantum yield (in Cc1ccccc1): 0.33

Compound: CC(C)c1cc(C(C)C)c(B2c3ccccc3Oc3cc(N4c5ccccc5C5(c6ccccc6Oc6ccccc65)c5ccccc54)ccc32)c(C(C)C)c1
photoluminescence quantum yield (in Cc1ccccc1): 0.56

Compound: c1ccc(-c2ccc(-c3ccccc3)s2)cc1
photoluminescence quantum yield (in C1CCOC1): 0.07

Compound: CC1(C)c2ccccc2-c2cc3c4cc(-n5c6ccccc6c6ccccc65)ccc4n(-c4ccc(-c5nc(-c6ccccc6)nc(-c6ccccc6)n5)cc4)c3cc21
photoluminescence quantum yield (in O=P(c1ccccc1)(c1ccccc1)c1ccccc1Oc1ccccc1P(=O)(c1ccccc1)c1ccccc1): 0.84

Compound: CCOC(=O)/C(C#N)=C\c1ccc2c(c1)c1ccccc1n2-c1ccc(OC)cc1
photoluminescence quantum yield (in C1CCOC1): 0.13
photoluminescence quantum yield (in CC#N): 0.04
photoluminescence quantum yield (in CC(C)=O): 0.05
photoluminescence quantum yield (in CCOC(C)=O): 0.08
photoluminescence quantum yield (in CO): 0.02
photoluminescence quantum yield (in CS(C)=O): 0.03
photoluminescence quantum yield (in Cc1ccccc1): 0.14
photoluminescence quantum yield (in ClC(Cl)Cl): 0.09

Compound: C(=C\c1ccc(N(c2ccc(/C=C/c3ccc(-c4cc(-c5ccccc5)nc(-c5ccccc5)c4)cc3)cc2)c2ccc(/C=C/c3ccc(-c4cc(-c5ccccc5)nc(-c5ccccc5)c4)cc3)cc2)cc1)/c1ccc(-c2cc(-c3ccccc3)nc(-c3ccccc3)c2)cc1
photoluminescence quantum yield (in C1CCOC1): 0.08
photoluminescence quantum yield (in Cc1ccccc1): 0.14

Next, values leading:

photoluminescence quantum yield (in CC#N): 0.0009
Compound: C=C[C@]12CC[C@H](CC1)N=N2

photoluminescence quantum yield (in CS(C)=O): 0.36
Compound: Fc1ccc2c(c1)sc1nc(-c3ccccc3)sc12

photoluminescence quantum yield (in O): 0.3
Compound: N#Cc1c(N2CCCCC2)cc(-c2cccs2)c2c1-c1cccc3cccc-2c13

photoluminescence quantum yield (in ClCCl): 0.28
Compound: COc1ccc(C2=C(c3ccc(OC)cc3)c3cccc4c5c(cc(c34)O2)=NC2C=C(Br)C(Br)=CC2N=5)cc1 (stereo not drawn)

photoluminescence quantum yield (in ClCCl): 0.05
Compound: CC1=C(C2=C(C)C(C)=[N+]3C2=Cc2cc(C)c(C)n2[B-]3(F)F)C2=Cc3cc(C)c(C)n3[B-](F)(F)[N+]2=C1C

photoluminescence quantum yield (in C1CCOC1): 0.208
Compound: O=C(c1ccc(C(=C(c2ccccc2)c2ccccc2)c2ccccc2)cc1)c1ccc(-n2c3ccccc3c3ccccc32)cc1

photoluminescence quantum yield (in C1CCOC1): 0.33
photoluminescence quantum yield (in CC#N): 0.17
photoluminescence quantum yield (in CO): 0.11
photoluminescence quantum yield (in ClCCl): 0.25
Compound: C(=C\c1nc2ccccc2s1)/c1ccc(-c2nc3c4cccnc4c4ncccc4c3[nH]2)cc1

photoluminescence quantum yield (in CO): 0.54
Compound: Cc1cc(C)c(B(c2cc(-c3ccc(C(C)(C)C)cc3)sc2-c2sc(-c3ccc(C(C)(C)C)cc3)cc2P(=O)(c2ccccc2)c2ccccc2)c2c(C)cc(C)cc2C)c(C)c1

photoluminescence quantum yield (in ClC(Cl)Cl): 0.59
Compound: c1csc(-c2ccc(-c3cccs3)c3nsnc23)c1

photoluminescence quantum yield (in C1CCOC1): 0.03
photoluminescence quantum yield (in CS(C)=O): 0.02
photoluminescence quantum yield (in ClCCl): 0.02
Compound: COc1cc(OC)cc(C2=C3C(C)=C(I)C(/C=C/c4c[nH]c5ccc([N+](=O)[O-])cc45)=[N+]3[B-](F)(F)n3c(/C=C/c4c[nH]c5ccc([N+](=O)[O-])cc45)c(I)c(C)c32)c1

photoluminescence quantum yield (in ClC(Cl)Cl): 0.6
Compound: CCc1ccc(-c2ccc(-c3nnc(-c4ccc(-c5nnc(-c6ccc(-c7ccc(CC)cc7)s6)o5)cc4)o3)s2)cc1

photoluminescence quantum yield (in CC#N): 0.05
Compound: COc1cc2cc(C#Cc3ccc(/C=C(\C#N)C(=O)O)cc3)c(=O)oc2cc1OC

photoluminescence quantum yield (in CS(C)=O): 0.018
Compound: COc1ccc(NC(=O)C(C(=O)Nc2ccc(OC)cc2)C(c2cc(F)ccc2O)c2c[nH]c3ccc(OC)cc23)cc1 (stereo not drawn)

photoluminescence quantum yield (in ClC(Cl)Cl): 0.01
Compound: CN(c1ccccc1)c1ccc(-c2ccc(-c3ccc(N(C)c4ccccc4)cc3)c3nc(-c4ccccc4)c(-c4ccccc4)nc23)cc1

photoluminescence quantum yield (in ClCCl): 0.72
Compound: COc1ccc2c(c1)CCC1=C(C#Cc3ccc(Cl)cc3)O[B-](F)(F)[O+]=C12

photoluminescence quantum yield (in CC#N): 0.11
Compound: COc1ccccc1-c1nc2c([nH]1)C1=CC(=O)S[C@]1(C)[C@@]1(C)SC(=O)C=C21

photoluminescence quantum yield (in ClCCl): 0.61
Compound: CC1=CC(C)=[N+]2C1=Cc1c3ccccc3c(-c3[nH]c(C)cc3C)n1[B-]2(F)F

photoluminescence quantum yield (in C1CCCCC1): 0.58
photoluminescence quantum yield (in C1CCOC1): 0.27
photoluminescence quantum yield (in CC#N): 0.08
Compound: Cn1nc(-c2ccccc2)c2nc3cc(Cl)ccc3nc21

photoluminescence quantum yield (in CCO): 0.26
Compound: Oc1cccc(O)c1-c1c2ccc(=[N+]3CCCCC3)cc-2oc2cc(N3CCCCC3)ccc12

photoluminescence quantum yield (in ClCCl): 0.34
Compound: C[Si]1(C)O[Si](C)(C)c2cc3c(-c4ccccc4)c4cc(Cl)ccc4nc3cc21

photoluminescence quantum yield (in CO): 0.0486
Compound: COc1ccc2[nH]cc(/C=C/C3=[NH+]c4cccc5cccc3c45)c2c1

photoluminescence quantum yield (in ClCCl): 0.45
Compound: CCCc1ccc(C#Cc2ccc3nc4ccc(C#Cc5ccc(CCC)cc5)cn4c(=O)c3c2)cc1

photoluminescence quantum yield (in ClCCl): 0.4
Compound: c1ccc(-c2c3ccccc3nc3cc4ccccc4cc23)cc1

photoluminescence quantum yield (in C1CCOC1): 0.11
photoluminescence quantum yield (in CC#N): 0.03
photoluminescence quantum yield (in CCCCCC): 0.37
Compound: CC(O)CC1=N/C(=C\c2cccc(N(C)C)c2)C(=O)N1C (stereo not drawn)

photoluminescence quantum yield (in ClCCl): 0.6
Compound: COc1ccc(N(c2ccc(OC)cc2)c2cc(N(c3ccc(OC)cc3)c3ccc(OC)cc3)c3ccc4cc(C(C)(C)C)cc5ccc2c3c54)cc1

photoluminescence quantum yield (in CC#N): 0.00144
photoluminescence quantum yield (in CCCCO): 0.0114
photoluminescence quantum yield (in CCCO): 0.00864
photoluminescence quantum yield (in CCO): 0.00427
photoluminescence quantum yield (in CO): 0.00252
Compound: Cc1cnc(NC(=O)C2=C([O-])c3ccccc3S(=O)(=O)N2C)s1

photoluminescence quantum yield (in C1CCOC1): 0.6
Compound: C(=C\c1cccc(/C=C/c2c3ccccc3cc3ccccc23)c1)/c1ccncc1

photoluminescence quantum yield (in CCO): 0.7
Compound: CN1c2cc3nc4cc(Cl)c(Cl)cc4nc3cc2N(C)C1(C)C

photoluminescence quantum yield (in CC#N): 0.18
Compound: Cc1cc(C)c2c(c1)nc1c(=O)n(C)c(=O)nc-1n2C

photoluminescence quantum yield (in CC#N): 0.19
Compound: C=CC(=O)Oc1ccc2cc(C=C)c(=O)oc2c1

photoluminescence quantum yield (in ClC(Cl)Cl): 0.08
Compound: Cc1ccc(/C2=c3\cc/c(o3)=C(\c3ccc(C)cc3)c3ccc([nH]3)-c3ccc4n3[B-](F)(F)[N+]3=C(C=CC3=C4c3ccco3)c3ccc2[nH]3)cc1

photoluminescence quantum yield (in CN(C)C=O): 0.155
Compound: CCN(CC)c1ccc(-c2nc(Oc3ccc(-c4nc5ccccc5s4)cc3)nc(Oc3ccc(-c4nc5ccccc5s4)cc3)n2)cc1
